Assay results reported in patent publication US20220110886A1, “OPTIMIZATION OF SCENT OR FLAVOR COMPOSITIONS” (Aromyx Corporation, priority 2019, published 2022).

Assays:
OR11H7P = biological target: T1, OR11H7P (Homo sapiens, UniProt Q8NGC8); assay: Olfactory receptor cAMP signaling in transfected HEK293T cells exposed to menthol; assay type: cell-based; conditions: 11H7P, menthol 1 nM to 1 mM, cAMP production
T1 construct: expressed in transfected cells; host or cells: HEK293T
T1 sequence (Q8NGC8 1-314): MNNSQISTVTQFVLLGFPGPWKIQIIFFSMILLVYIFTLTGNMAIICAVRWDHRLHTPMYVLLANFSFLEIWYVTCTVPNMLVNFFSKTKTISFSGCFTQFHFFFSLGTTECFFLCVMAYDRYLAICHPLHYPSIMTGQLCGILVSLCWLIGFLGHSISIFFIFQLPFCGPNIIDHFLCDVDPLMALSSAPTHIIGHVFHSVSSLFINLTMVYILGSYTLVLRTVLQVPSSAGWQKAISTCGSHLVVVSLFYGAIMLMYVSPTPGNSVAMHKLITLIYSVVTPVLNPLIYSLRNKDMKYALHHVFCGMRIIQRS
Experimental: (§1) When creating an age-related flavor profile for menthol, identification of the olfactory receptors that respond to menthol may be accomplished by transfecting human olfactory receptor cDNA sequences in HEK293T co-expressing accessory factors for odorant receptor expression (see, e.g., Saito, H., et al., Cell 119:679-691 (2004)). Transfected cells may then be exposed to serial dilutions of menthol from 1 nM to 1 mM in growth medium, and receptor signaling may be measured by cAMP production in the cell using a commercial assay.
(§2) Next, positive olfactory receptors may be identified by increased signaling when exposed to at least one menthol concentration compared to control cells that have not been transfected. In each case, an EC50 is defined for the receptor versus menthol. Olfactory receptors OR1G1, 8K3, 2W1, 2J2, 11H7P and 51E1 have been identified by this method as menthol-sensitive olfactory receptors.

OR1G1 = biological target: T2, OR1G1 (Homo sapiens, UniProt P47890); assay: as above; assay type: cell-based; conditions: menthol 1 nM to 1 mM, cAMP production
T2 construct: expressed in transfected cells; host or cells: HEK293T
T2 sequence (P47890 1-313): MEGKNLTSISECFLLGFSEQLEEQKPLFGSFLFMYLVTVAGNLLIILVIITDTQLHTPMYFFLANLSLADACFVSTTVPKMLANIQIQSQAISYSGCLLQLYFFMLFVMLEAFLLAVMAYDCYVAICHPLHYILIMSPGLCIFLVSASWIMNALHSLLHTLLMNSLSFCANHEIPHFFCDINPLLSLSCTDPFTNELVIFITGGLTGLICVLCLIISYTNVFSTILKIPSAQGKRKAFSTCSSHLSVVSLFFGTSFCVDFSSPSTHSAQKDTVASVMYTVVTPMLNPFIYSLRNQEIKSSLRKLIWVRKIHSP
Experimental: as §1, §2

OR2J2 = biological target: T3, OR2J2 (Homo sapiens, UniProt O76002); assay: as above; assay type: cell-based; conditions: 2J2, menthol 1 nM to 1 mM, cAMP production
T3 construct: expressed in transfected cells; host or cells: HEK293T
T3 sequence (O76002 1-312): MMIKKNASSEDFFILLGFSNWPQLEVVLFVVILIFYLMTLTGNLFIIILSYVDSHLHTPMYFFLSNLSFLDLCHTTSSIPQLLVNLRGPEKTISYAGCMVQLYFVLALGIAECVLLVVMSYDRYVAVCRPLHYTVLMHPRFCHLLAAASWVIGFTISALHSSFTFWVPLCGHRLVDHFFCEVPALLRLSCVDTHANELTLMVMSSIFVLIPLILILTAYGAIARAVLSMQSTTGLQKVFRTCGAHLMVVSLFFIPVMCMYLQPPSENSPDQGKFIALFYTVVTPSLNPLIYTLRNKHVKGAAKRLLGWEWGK
Experimental: as §1, §2

OR2W1 = biological target: T4, OR2W1 (Homo sapiens, UniProt Q9Y3N9); assay: as above; assay type: cell-based; conditions: 2W1, menthol 1 nM to 1 mM, cAMP production
T4 construct: expressed in transfected cells; host or cells: HEK293T
T4 sequence (Q9Y3N9 1-320): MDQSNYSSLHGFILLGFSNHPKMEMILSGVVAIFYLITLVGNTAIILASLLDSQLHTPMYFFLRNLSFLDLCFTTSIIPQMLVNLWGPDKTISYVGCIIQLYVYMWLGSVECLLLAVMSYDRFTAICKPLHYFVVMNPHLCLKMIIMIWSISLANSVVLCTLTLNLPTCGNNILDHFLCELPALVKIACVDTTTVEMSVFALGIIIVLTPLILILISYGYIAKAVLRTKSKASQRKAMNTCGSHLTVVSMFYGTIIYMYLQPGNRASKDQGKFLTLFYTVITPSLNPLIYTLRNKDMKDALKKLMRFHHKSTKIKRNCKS
Experimental: as §1, §2

OR51E1 = biological target: T5, OR51E1 (Homo sapiens, UniProt Q8TCB6); assay: as above; assay type: cell-based; conditions: 51E1, menthol 1 nM to 1 mM, cAMP production
T5 construct: expressed in transfected cells; host or cells: HEK293T
T5 sequence (Q8TCB6 1-318): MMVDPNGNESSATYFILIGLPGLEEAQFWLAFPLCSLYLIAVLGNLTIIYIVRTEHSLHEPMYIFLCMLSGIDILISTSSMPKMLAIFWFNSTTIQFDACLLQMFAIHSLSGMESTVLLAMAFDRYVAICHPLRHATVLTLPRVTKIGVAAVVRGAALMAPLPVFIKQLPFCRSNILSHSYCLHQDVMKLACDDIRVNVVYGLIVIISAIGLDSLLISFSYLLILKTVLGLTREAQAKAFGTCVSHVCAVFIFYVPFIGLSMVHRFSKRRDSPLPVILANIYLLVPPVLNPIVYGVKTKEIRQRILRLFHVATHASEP
Experimental: as §1, §2

OR8K3 = biological target: T6, OR8K3 (Homo sapiens, UniProt Q8NH51); assay: as above; assay type: cell-based; conditions: 8K3, menthol 1 nM to 1 mM, cAMP production
T6 construct: expressed in transfected cells; host or cells: HEK293T
T6 sequence (Q8NH51 1-312): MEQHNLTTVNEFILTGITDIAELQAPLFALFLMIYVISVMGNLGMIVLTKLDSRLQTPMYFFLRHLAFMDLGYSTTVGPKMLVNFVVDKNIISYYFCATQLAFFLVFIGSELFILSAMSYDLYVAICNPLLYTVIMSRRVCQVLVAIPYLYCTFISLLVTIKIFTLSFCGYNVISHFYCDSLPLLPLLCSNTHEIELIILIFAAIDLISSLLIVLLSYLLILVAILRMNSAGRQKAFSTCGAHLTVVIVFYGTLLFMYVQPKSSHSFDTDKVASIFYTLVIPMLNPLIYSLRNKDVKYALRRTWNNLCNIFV
Experimental: as §1, §2

[1] = adults relative to children; cited from earlier work

**Q.** Which “receptor identified as menthol-sensitive (increased signaling vs non-transfected control cells)” value (OR11H7P) does the source give for `CC1CCC(C(C)C)C(O)C1` (stereo not shown) [menthol] here?
**A.** menthol-sensitive

**Q.** And the “receptor identified as menthol-sensitive (increased signaling vs non-transfected control cells)” value (OR1G1)?
**A.** menthol-sensitive

**Q.** And the “receptor identified as menthol-sensitive (increased signaling vs non-transfected control cells)” value (OR2J2)?
**A.** menthol-sensitive

**Q.** What about the “receptor identified as menthol-sensitive (increased signaling vs non-transfected control cells)” value (OR2W1) of the same compound?
**A.** menthol-sensitive

**Q.** And the “receptor identified as menthol-sensitive (increased signaling vs non-transfected control cells)” value (OR51E1)?
**A.** menthol-sensitive

**Q.** And the “receptor identified as menthol-sensitive (increased signaling vs non-transfected control cells)” value (OR8K3)?
**A.** menthol-sensitive

**Q.** And the “menthol concentration adults require to perceive the same level of intensity as children” value [1]?
**A.** approximately two
